Assay results published in US20070270392A1, “Use of a Cyclopentenone Prostaglandin for Delaying the Onset and/or Preventing the Continuation of Labour” (Imperial College Innovations Limited, priority 2003, published 2007).

How the values were obtained:
PPAR-γ = assay: Western immunoblot of PPAR-γ protein expression in myometrial and amnion cells; type: cell-based, human
Method: Western immunoblots of (A) nuclear and cytosolic protein extracts from myometrial and amnion cells with or without 15 min IL-1β stimulation, and (B) nuclear extracts of myometrial cells treated with 15d-PGJ2+/−IL-1b. Probing with antibody to PPARγ.
(§1) Protein samples (20-70 μg) were mixed with Laemmli sample buffer (1:1) containing β-mercaptoethanol (5%), and boiled for 5 min. Proteins were then separated by SDS-PAGE (12-14% gels) and transferred onto PVDF membrane (Amersham Pharmacia Biotech). The membranes were blocked overnight in 5% non-fat milk prepared in PBS-T buffer, at 4° C. The blots were incubated with the primary antibody in 1% non-fat milk in PBS-T buffer for 1 h, and washed three times (10 min each) in PBS-T with vigorous shaking. The blots were then incubated with HRP-conjugated secondary antibody (diluted 1:2000 in 1% non-fat milk in PBS-T buffer) for 1 h and washed three times (10 min each) in PBS-T. Signal detection was achieved using enhanced chemi-luminescence (ECL plus system, Amersham Pharmacia Biotech) according to manufacturer's instructions.
30-50 μg protein extracts were subjected to SDS-PAGE and Western immuno-blotting. Secondary antibodies were IgG-HRP and ECL Plus detection kit (Amersham Pharmacia Biotech, Amersham Place, Little Chalfont, Bucks, HP7 9NA) was used for visualisation.

[1] = tested on: LPS-induced inflammatory responses in placental homogenates; assay: Mouse model of preterm labour: placental inflammatory responses after intrauterine LPS ± 15d-PGJ2; type: in vivo, mice
Method: Concentrations of IL-1 (in placental homogenates collected from gestation day 16 mice 6 hours after intrauterine injection of 250 μg LPS+vehicle or 250 μg LPS+4 μg 15d-PGJ2. * denotes statistically significant difference (t-test (p<0.05)).
Relative concentrations of phospho-p65 in placental homogenates collected from gestation day 16 mice 6 hours after intrauterine injection of 250 μg LPS+vehicle or 250 μg LPS+4 μg 15d-PGJ2. * denotes statistically significant difference (t-test (p<0.05)).
Surgery was performed on timed pregnant MF1 mice at day 16 of gestation. After deep maternal anaesthesia was attained, a minilaparotomy was performed in the lower abdomen. The uterine horns were exposed through the incision and preterm labour was induced by the intrauterine injection of […] lipopolysaccharide (LPS, Sigma) into the gravid horn. This was immediately followed by injection of 4 μg […] (Cayman), or an equal volume of vehicle (methyl acetate), at the same site. The uterus was then returned to the abdomen and the fascia and skin were closed with continuous vicryl sutures.
Mice were sacrificed 6 hours after injection of LPS±15d-PGJ2. Placentae were washed in phosphate buffered saline (PBS), flash frozen in liquid nitrogen and stored at −80° C. until further processing. Fetuses were washed in PBS, then immediately fixed in 4% paraformaldehyde for 24 h and then stored in 70% ethanol until further processing. Placentae were homogenized for 1 minute in the presence of lysis buffer comprising 400 mM KCl, 20 mM HEPES pH7.4, 1 mM dithiothreitol, 20% glycerol and 5% (v/v) protease inhibitor cocktail.
Homogenate levels of Interleukin-1β (IL-1β) and tumour necrosis factor α (TNFα) were determined in placental lysates by ELISA (R and D systems) according to manufacturers instructions. Total protein concentrations were determined for each homogenate and IL-1β and TNFα levels were expressed as pg/mg total protein. […] Phosphorylated p65 (phospho-p65) was detected by western immunoblotting using a specific antibody (Santa Cruz) and quantified by densitometric analysis.

COX-2 [2] = assay: Western immunoblot of IL-1β-induced COX-2 protein expression in myometrial cells; type: cell-based, human; settings: treated 2 h, IL-1β 6 h
Method: Myometrial tissue was collected at term from the upper margin of uterine incision at the time of lower segment caesarean section either prior to the onset of labour (L−) or […] (L+). L+ samples were collected by Dr Mark Johnson and Dr S Soorrana at Chelsea & Westminster Hospital. Myometrial tissue was dissected, rinsed in PBS, and digested in serum-free DMEM containing 15 mg/ml collagenase 1A (Sigma), 15 mg/ml collagenase X, and 50 mg/ml bovine serum albumin for 45 min at 37° C. The cell suspension was filtered through a cell strainer, centrifuged at 400 g for 5 min, and the pellet re-suspended and plated out in DMEM, 10% FCS (Helena BioScience), 1% L-glutamine, 1% penicillin-streptomycin. Cells were used between passage numbers 1-4.
as §1, with “The membranes were blocked overnight in 5% non-fat milk prepared in PBS-T buffer, at 4° C. The blots were incubated with the primary antibody in 1% non-fat milk in PBS-T buffer for 1 h, and washed three times (10 min each) in PBS-T with vigorous shaking.” left out, “instructions. […]” for “instructions.”

COX-2 [3] = assay: IL-1β-induced COX-2 expression in L− and L+ amnion cells; type: cell-based, human
Method: (§2) Placentae were obtained from patients at term either at elective Caesarean section prior to labour (L−) or following spontaneous labour onset and vaginal delivery (L+). Amnion cells were prepared as described in Bennett et al., (1989). Briefly, the amnion was separated from the placenta, washed 3× in PBS, cut into strips, and incubated in 0.51 mM EDTA in PBS for 15 min. The strips were washed in PBS 2× and digested with 2.5 mg/ml dispase in serum-free DMEM for 35 min at 37° C. The amnion was then shaken vigorously in DMEM, 10% FCS to dissociate the cells, the remaining strips discarded, and the cell suspension pelleted at 175 g for 10 min and cultured in DMEM, 10% FCS (Sigma), 1% L-glutamine, 1% penicillin-streptomycin.
as §1, with “The blots were incubated with the primary antibody in 1% non-fat milk in PBS-T buffer for 1 h, and washed three times (10 min each) in PBS-T with vigorous shaking.” left out, “instructions. […]” for “instructions.”

NF-κB = assay: Western immunoblot of NF-κB activation (p65, p50, IκB) in amnion cells; type: cell-based, human; settings: L−
Method: Western immunoblots of nuclear or cytosolic protein extracts from (A) myometrial cells, (B) L− amnion cells, and (C) L+amnion cells treated with 15dPGJ2 or vehicle for 2 h+/−IL-1, stimulation (15 min). Blots probed with antibodies against p65, p50 or IκBα.
as §2
Nuclear and cytosolic protein extracts were obtained from cultured amnion cells as described by Schreiber et al (1989). For nuclear/cytosolic fractionation, confluent cell monolayers were scraped and lysed using a buffer containing 10 mM HEPES, 10 mM KCl, 0.1 mM EDTA, 0.1 mM EGTA, 2 mM DTT, 1% (v/v) NP-40 and complete protease inhibitor tablets (CPIs, Roche), diluted to manufacturer's instructions. Cell lysates were incubated on ice for 10 min and NP-40 added to a final concentration of 1% (v/v). Lysates were vortexed for 10 secs and centrifuged for 30 secs at 4° C., 12000 g. The supernatants were retained as the cytosolic protein extracts. The pellets were resuspended in buffer containing 10 mM HEPES, 10 mM KCl, 0.1 mM EDTA, 0.1 mM EGTA, 2 mM DTT, 400 mM NaCl, 1% NP-40 (v/v) and CPIs. Samples were shaken vigorously for 15 min in an ice bath. The nuclear protein extracts were obtained in the supernatant following a 5 min centrifugation at 4° C., 12000 g.
as §1, with “instructions. […]” for “instructions.”

[4] = proximal placentae, gestation day 16 mice, 6 hours after intrauterine 250 μg LPS+4 μg 15d-PGJ2, p<0.05

## CCCCCC=CC=C1C(=O)C=C[C@@H]1CC=CCCCC(=O)O [15d-PGJ2, 15-deoxy-Δ^12,14prostaglandin J2]
PPAR-γ
  PPAR-γ protein expression: not affected
[1]; placentae, 6 hours after intrauterine LPS+15d-PGJ2 vs LPS+ vehicle
  TNFα levels according to drug treatment: not significantly altered
[1]; [4]
  Levels of IL-1β lower than LPS+ vehicle: approximately 40%
  phospho-p65 levels lower than LPS+ vehicle: approximately 35%
COX-2 [2]
  IL-1β-induced COX-2 expression: inhibited
COX-2 [3]
  IL-1β-induced COX-2 expression: inhibited
NF-κB
  IL-1β-induced IκBα and IκBβ degradation: inhibition
  IL-1β-induced p50 phosphorylation: inhibited
  IL-1β-induced p65 nuclear translocation: inhibited
